{"source": "patent US10138230B2", "about": "“Autotaxin inhibitors” (CANCER RESEARCH TECHNOLOGY LIMITED, priority 2015, dated 2018)", "note": "Where a name gives a salt, the structure may show the parent alone.", "data": [{"target": "human recombinant ATX (Homo sapiens (Human), UniProt Q13822)", "test": "Autotaxin (ATX) activity Quanta Red assay", "assay_type": "biochemical", "settings": "15 μM Rac-1-Palmitoyl-glycero-3-phosphocholine, 2 hours room temperature, determined in duplicate", "procedure,_shortened": "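Human recombinant ATX (0.8 μg/mL final) in 50 mM Tris-HCl pH 8.0, 5 mM CaCl2, 4% DMSO; 15 μM rac-1-palmitoyl-glycero-3-phosphocholine with HRP/choline oxidase-coupled Quanta Red, 2 h at room temperature.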", "units": {"IC50": "µM"}, "values": [{"smiles": "CC(C)(C)OC(=O)N1CCN(Cc2ccc(N3CC(C(=O)Nc4nnc(CCc5ccc(Cl)cc5)s4)CC3=O)cc2)CC1", "note": "(stereo not drawn) [Compound F157, tert-butyl 4-[[4-[4-[[5-[2-(4-chlorophenyl)ethyl]-1,3,4-thiadiazol-2-yl]carbamoyl]-2-oxo-pyrrolidin-1-yl]phenyl]methyl] piperazine-1-carboxylate]", "IC50": 0.015}, {"smiles": "O=C(Nc1cc(CCc2ccccc2)on1)C1CC(=O)N(c2ccc(CN3CCOCC3)cc2)C1", "note": "(stereo not drawn) [Compound F158, 1-[4-(morpholinomethyl)phenyl]-5-oxo-N-[5-(2-phenylethyl)isoxazol-3-yl]pyrrolidine-3-carboxamide]", "IC50": 0.017}, {"smiles": "CC(C)N(C)Cc1ccc(N2CC(C(=O)Nc3nnc(CCc4ccc(Cl)cc4)s3)CC2=O)cc1", "note": "(stereo not drawn) [Compound F159, N-[5-[2-(4-chlorophenyl)ethyl]-1,3,4-thiadiazol-2-yl]-1-[4-[[isopropyl (methyl)amino]methyl]phenyl]-5-oxo-pyrrolidine-3-carboxamide]", "IC50": 0.018}, {"smiles": "O=C(Nc1nnc(CCc2ccc(Cl)cc2)s1)C1CC(=O)N(c2ccc(CN3CCNCC3)cc2)C1", "note": "(stereo not drawn) [Compound F160, 5-Oxo-1-(4-piperazin-1-ylmethyl-phenyl)-pyrrolidine-3-carboxylic acid {5-[2-(4-chloro-phenyl)-ethyl]-[1,3,4]thiadiazol-2-yl}-amide; dihydrochloride]", "IC50": 0.024}, {"smiles": "O=C(Nc1nnc(CCc2ccc(Cl)cc2)s1)[C@@H]1CC(=O)N(c2ccc(CN3CCOCC3)cc2)C1", "note": "[Compound F161, (3R)-N-[5-[2-(4-chlorophenyl)ethyl]-1,3,4-thiadiazol-2-yl]-1-[4-(morpholinomethyl)phenyl]-5-oxo-pyrrolidine-3-carboxamide]", "IC50": 0.037}, {"smiles": "O=C(Nc1ccc(CCc2ccccc2)nn1)C1CC(=O)N(c2ccc(CN3CCOCC3)cc2)C1", "note": "(stereo not drawn) [Compound F162, 1-[4-(morpholinomethyl)phenyl]-5-oxo-N-[6-(2-phenylethyl)pyridazin-3-yl]pyrrolidine-3-carboxamide]", "IC50": 0.037}, {"smiles": "O=C(Nc1nnc(CCc2ccc(Cl)cc2)s1)[C@@H]1CC(=O)N(c2ccc(CN3CCCCC3)cc2)C1", "note": "[Compound F163, (3R)-N-[5-[2-(4-chlorophenyl)ethyl]-1,3,4-thiadiazol-2-yl]-5-oxo-1-[4-(1-piperidylmethyl)phenyl] pyrrolidine-3-carboxamide]", "IC50": 0.049}, {"smiles": "O=C(Nc1nnc(CCC2CCCCO2)s1)[C@H]1CC(=O)N(c2ccc(CN3CCCCC3)cc2)C1", "note": "(stereo partly drawn) [Compound F164, (3S)-5-oxo-1-[4-(1-piperidylmethyl)phenyl]-N-[5-(2-tetrahydropyran-2-ylethyl)-1,3,4-thiadiazol-2-yl]pyrrolidine-3-carboxamide]", "IC50": 0.07}, {"smiles": "O=C(Nc1nnc(CCC2CCCCO2)s1)[C@H]1CC(=O)N(c2ccc(CN3CCOCC3)cc2)C1", "note": "(stereo partly drawn) [Compound F165, (3S)-1-[4-(morpholinomethyl)phenyl]-5-oxo-N-[5-(2-tetrahydropyran-2-ylethyl)-1,3,4-thiadiazol-2-yl]pyrrolidine-3-carboxamide]", "IC50": 0.095}, {"smiles": "O=C(Nc1nnc(CCC2CCCC2)s1)C1CC(=O)N(c2ccc(CN3CCCCC3)cc2)C1", "note": "(stereo not drawn) [Compound F166, N-[5-(2-cyclopentylethyl)-1,3,4-thiadiazol-2-yl]-5-oxo-1-[4-(1-piperidylmethyl)phenyl] pyrrolidine-3-carboxamide]", "IC50": 0.016}, {"smiles": "O=C(N[C@H]1CCN(c2ccc(CN3CCOCC3)cc2)C1)c1nnc(CCc2ccc(Cl)cc2)s1", "note": "[Compound F167, 5-[2-(4-Chloro-phenyl)-ethyl]-[1,3,4]thiadiazole-2-carboxylic acid [(S)-1-(4-morpholin-4-ylmethyl-phenyl)-pyrrolidin-3-yl]-amide]", "IC50": 0.016}, {"smiles": "O=C(NC1CC(=O)N(c2ccc(CN3CCCCC3)cc2)C1)c1nnc(CCc2ccc(F)cc2)s1", "note": "(stereo not drawn) [Compound F168, 5-[2-(4-fluorophenyl)ethyl]-N-[5-oxo-1-[4-(1-piperidylmethyl)phenyl]pyrrolidin-3-yl]-1,3,4-thiadiazole-2-carboxamide]", "IC50": 0.017}, {"smiles": "CC1(O)CCN(Cc2ccc(N3C[C@H](NC(=O)c4nnc(CCc5ccc(Cl)cc5)s4)CC3=O)cc2)CC1", "note": "[Compound F169, 5-[2-(4-chlorophenyl)ethyl]-N-[(3R)-1-[4-[(4-hydroxy-4-methyl-1-piperidyl)methyl]phenyl]-5-oxo-pyrrolidin-3-yl]-1,3,4-thiadiazole-2-carboxamide]", "IC50": 0.022}, {"smiles": "CC(C)(O)CCNCc1ccc(N2C[C@H](NC(=O)c3nnc(CCc4ccc(Cl)cc4)s3)CC2=O)cc1", "note": "[Compound F170, 5-[2-(4-chlorophenyl)ethyl]-N-[(3R)-1-[4-[[(3-hydroxy-3-methyl-butyl)amino]methyl]phenyl]-5-oxo-pyrrolidin-3-yl]-1,3,4-thiadiazole-2-carboxamide hydrochloride]", "IC50": 0.058}, {"smiles": "CN(CCC(C)(C)O)Cc1ccc(N2C[C@H](NC(=O)c3nnc(CCc4ccc(Cl)cc4)s3)CC2=O)cc1", "note": "[Compound F171, 5-[2-(4-chlorophenyl)ethyl]-N-[(3R)-1-[4-[[(3-hydroxy-3-methyl-butyl)-methyl-amino]methyl]phenyl]-5-oxo-pyrrolidin-3-yl]-1,3,4-thiadiazole-2-carboxamide]", "IC50": 0.058}, {"smiles": "O=C(NC1CC(=O)N(c2ccc(CN3CCCCC3)cc2)C1)c1nnc(CCc2ccccc2)s1", "note": "(stereo not drawn) [Compound F172, N-[5-oxo-1-[4-(1-piperidylmethyl)phenyl]pyrrolidin-3-yl]-5-(2-phenylethyl)-1,3,4-thiadiazole-2-carboxamide]", "IC50": 0.076}, {"smiles": "O=C(N[C@@H]1CC(=O)N(c2ccc(CN3CCCCC3)cc2)C1)c1cc(CCc2ccc(F)cc2)on1", "note": "[Compound F173, 5-[2-(4-fluorophenyl)ethyl]-N-[(3R)-5-oxo-1-[4-(1-piperidylmethyl)phenyl]pyrrolidin-3-yl]isoxazole-3-carboxamide]", "IC50": 0.024}, {"smiles": "O=C(N[C@H]1CC(=O)N(c2ccc(CN3CCCCC3)cc2)C1)c1cc(CCc2ccc(F)cc2)on1", "note": "[Compound F174, 5-[2-(4-fluorophenyl)ethyl]-N-[(3S)-5-oxo-1-[4-(1-piperidylmethyl)phenyl]pyrrolidin-3-yl]isoxazole-3-carboxamide]", "IC50": 0.033}, {"smiles": "O=C(NC1CC(=O)N(c2ccc(CN3CCCCC3)cc2)C1)c1cc(CCc2ccccc2)on1", "note": "(stereo not drawn) [Compound F175, N-[5-oxo-1-[4-(1-piperidylmethyl)phenyl]pyrrolidin-3-yl]-5-(2-phenylethyl)isoxazole-3-carboxamide]", "IC50": 0.047}, {"smiles": "O=C(Nc1nnc(CCc2ccccc2)s1)C1CC(=O)N(c2ccc(CN3CCOCC3)cc2)C1", "note": "(stereo not drawn) [Compound F176, 1-[4-(morpholinomethyl)phenyl]-5-oxo-N-[5-(2-phenylethyl)-1,3,4-thiadiazol-2-yl]pyrrolidine-3-carboxamide]", "IC50": 0.011}, {"smiles": "CN(C)Cc1ccc(N2CC(C(=O)Nc3nnc(CCc4ccc(Cl)cc4)s3)CC2=O)cc1", "note": "(stereo not drawn) [Compound F177, N-[5-[2-(4-chlorophenyl)ethyl]-1,3,4-thiadiazol-2-yl]-1-[4-[(dimethylamino)methyl]phenyl]-5-oxo-pyrrolidine-3-carboxamide]", "IC50": 0.029}, {"smiles": "O=C(Nc1ccc(CCc2ccc(F)cc2)nn1)[C@H]1CC(=O)N(c2ccc(CN3CCCCC3)cc2)C1", "note": "[Compound F178, (3S)-N-[6-[2-(4-fluorophenyl)ethyl]pyridazin-3-yl]-5-oxo-1-[4-(1-piperidylmethyl)phenyl] pyrrolidine-3-carboxamide]", "IC50": 0.03}, {"smiles": "O=C(Nc1cc(CCc2ccccc2)[nH]n1)C1CC(=O)N(c2ccc(CN3CCOCC3)cc2)C1", "note": "(stereo not drawn) [Compound F179, 1-[4-(morpholinomethyl)phenyl]-5-oxo-N-[5-(2-phenylethyl)-1H-pyrazol-3-yl]pyrrolidine-3-carboxamide]", "IC50": 0.038}, {"smiles": "O=C(Nc1ccc(CCc2ccc(F)cc2)nn1)[C@H]1CC(=O)N(c2ccc(CN3CCOCC3)cc2)C1", "note": "[Compound F180, (3S)—N-[6-[2-(4-fluorophenyl)ethyl]pyridazin-3-yl]-1-[4-(morpholinomethyl)phenyl]-5-oxo-pyrrolidine-3-carboxamide hydrochloride]", "IC50": 0.011}, {"smiles": "CCC(C)CCc1nnc(NC(=O)C2CC(=O)N(c3ccc(CN4CCCCC4)cc3)C2)s1", "note": "(stereo not drawn) [Compound F182, 5-oxo-1-(4-piperidin-1-ylmethyl-phenyl)-pyrrolidine-3-carboxylic acid [5-(3-methyl-pentyl)-[1,3,4]thiadiazol-2-yl]-amide; hydrochloride]", "IC50": 0.021}, {"smiles": "O=C1CC(NCc2nnc(CCc3ccc(Cl)cc3)s2)CN1c1ccc(CN2CCOCC2)cc1", "note": "(stereo not drawn) [Compound F183, 4-({5-[2-(4-Chloro-phenyl)-ethyl]-[1,3,4]thiadiazol-2-ylmethyl}-amino)-1-(4-morpholin-4-ylmethyl-phenyl)-pyrrolidin-2-one; hydrochloride]", "IC50": 0.023}, {"smiles": "CN1CCC(C(=O)NCc2ccc(N3CC(C(=O)Nc4nnc(CCc5ccc(Cl)cc5)s4)CC3=O)cc2)CC1", "note": "(stereo not drawn) [Compound F184, 1-Methyl-piperidine-4-carboxylic acid 4-(4-{5-[2-(4-chloro-phenyl)-ethyl]-[1,3,4]thiadiazol-2-ylcarbamoyl}-2-oxo-pyrrolidin-1-yl)-benzylamide]", "IC50": 0.045}, {"smiles": "O=C(Nc1nnc(CCC2CCCO2)s1)[C@H]1CC(=O)N(c2ccc(CN3CCOCC3)cc2)C1", "note": "(stereo partly drawn) [Compound F186, (3S)-1-[4-(morpholinomethyl)phenyl]-5-oxo-N-[5-(2-tetrahydrofuran-2-ylethyl)-1,3,4-thiadiazol-2-yl]pyrrolidine-3-carboxamide]", "IC50": 0.134}, {"smiles": "O=C(Nc1ncc(COC2CCCCC2)s1)C1CC(=O)N(c2ccc(CN3CCOCC3)cc2)C1", "note": "(stereo not drawn) [Compound F187, N-[5-(cyclohexoxymethyl)thiazol-2-yl]-1-[4-(morpholinomethyl)phenyl]-5-oxo-pyrrolidine-3-carboxamide]", "IC50": 0.163}, {"smiles": "O=C(Nc1nnc(CCC2CCOCC2)s1)C1CC(=O)N(c2ccc(CN3CCCCC3)cc2)C1", "note": "(stereo not drawn) [Compound F189, 5-oxo-1-[4-(1-piperidylmethyl)phenyl]-N-[5-(2-tetrahydropyran-4-ylethyl)-1,3,4-thiadiazol-2-yl]pyrrolidine-3-carboxamide]", "IC50": 0.487}]}]}
